Test results taken from patent publication EP0133795B1 (THE McLEAN HOSPITAL CORPORATION, priority 1983, dated 1985).

Tests used:
[1] = tested on: CAI pyramidal cells; format: cell-based, Sprague-Dawley rats
Protocol: Transverse slices of hippocampus (350-375 µm thick) were prepared from Sprague-Dawley rats (200-300 g) and transferred onto a nylon net fixed over a 1.5 ml superfusion chamber. The slices were maintained at 32-33°C in a humidified atmosphere of 95%/5% 02/C02. The standard medium consisted of (in mM): NaCl, 125; KCI, 3.5; CaC12,2; MgS04, 1.5; NaH2PO4, 1; NaHC03, 24; and glucose, 10. Low chloride medium was prepared by substituting sodium isethionate for sodium chloride.
Extracellular potentials were recorded with NaCI-fitted micropipettes, and stimulus pulses were applied through bipolar platinum wire electrodes. The various drugs were dissolved in fresh medium (without glucose and phosphate) and applied to the surface of the tissue by pressure ejection from a micropipette, Sakai, Swartz and Woody, (1979).
The inhibitory effectiveness of various compounds was investigated by measuring their ability to suppress the extracellular population spike recorded from the hippocampal CAI pyramidal layer and elicited by stimulation of stratum radiatum axons. The amplitude of this monosynaptic population spike is essentially proportional to the number of pyramidal cells discharging in response to a stimulus volley, Andersen, Bliss and Skrede, (1971).
The various compounds were applied as droplets to the pyramidal layer approximately 75 µm from the recording electrode. The volume of a single drug application was about 300 picoliters. […] The volume ejected from each pipette was calibrated prior to use by measuring the diameter of the ejected droplet and adjusting the duration of the pressure pulse (usually 100-500 msec) until a standard diameter was reached. A constant droplet volume was used throughout the experiments. Where dose-response information was required, several pipettes with different drug concentrations were used.

[2] = tested on: bicuculline-induced epileptic seizures; assay: Delay of onset of bicuculline-induced seizures (anticonvulsant activity); format: in vivo, mouse; details: for Onset of seizures: % Saline Control / Survival Time: % Saline Control: 24 hr pretreatment
[3] = 16 mg/kg, bicuculline 0.3 mg/kg
[4] = 30 mg/kg, bicuculline 0.3 mg/kg
[5] = 84 mg/kg, bicuculline 0.3 mg/kg, mean ± SEM, n ≥ 6

Substance: (3-Cholesteryl)-gamma-Aminobutyrate [Compound 6]
- duration of the effect relative to a similar dose of GABA [1]: roughly an order of magnitude longer
- effect after incubation of slices in PMSF (0.5 mM) for about 45 min [1]: significantly reduced
- effect with picrotoxin (10 µM) in the medium or low chloride medium [1]: essentially eliminate the C-G effect
- recovery of the population spike amplitude to 90% of the pre-droplet control value ([1]; after an approximately half-maximal dose): about 14 min
- inhibition of the evoked population spike ([1]; droplets applied to the CAI pyramidal layer): dose-dependent inhibition
- Onset of seizures: % Saline Control ([2]; 3 mg/kg, bicuculline 0.3 mg/kg): 120 ± 6 % Saline Control
- Survival Time: % Saline Control ([2]; 3 mg/kg, bicuculline 0.3 mg/kg): 95 ± 15 % Saline Control
- Onset of seizures: % Saline Control [2, 3]: 129 ± 4 % Saline Control
- Survival Time: % Saline Control [2, 3]: 101 ± 20 % Saline Control
- Onset of seizures: % Saline Control [2, 4]: 130 ± 8 % Saline Control
- Survival Time: % Saline Control [2, 4]: 104 ± 18 % Saline Control
- Onset of seizures: % Saline Control [2, 5]: 137 ± 7 % Saline Control
- Survival Time: % Saline Control [2, 5]: 109 ± 9 % Saline Control
- delay of onset of seizures ([2]; 24 hr after i.p. injection of 30 mg/kg, bicuculline 0.3 mg/kg): 30%
- In Vivo Delay of Time of Onset of Bicuculline-induced seizures ([2]; graded 0-5): 5
